Source: US9266878B2, “Phosphatidylinositol 3-kinase inhibitors” (Gilead Calistoga LLC, priority 2012, dated 2016)

Experiments:
Assay in all cases: Enzymatic activity of PI3K isoforms, TR-FRET assay (PIP3 formation)
Type in all cases: biochemical
PI3Kγ = PI3Kγ (Homo sapiens (Human), UniProt P48736)
Summary of the method: (§1)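 IC50 (nM) reflects inhibition of PIP3 formation by purified recombinant heterodimeric PI3K, measured as loss of TR-FRET signal. The read-out comes from competition between enzyme-made PIP3 and labelled PIP3 for binding to the GRP-1 pleckstrin homology domain.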

PI3Kβ = PI3Kβ (Homo sapiens (Human), UniProt P42338)
Summary of the method: as §1

PI3Kδ = PI3Kδ (Homo sapiens (Human), UniProt O00329); conditions: bound given in nM
Chain of PI3Kδ (O00329 whole entry): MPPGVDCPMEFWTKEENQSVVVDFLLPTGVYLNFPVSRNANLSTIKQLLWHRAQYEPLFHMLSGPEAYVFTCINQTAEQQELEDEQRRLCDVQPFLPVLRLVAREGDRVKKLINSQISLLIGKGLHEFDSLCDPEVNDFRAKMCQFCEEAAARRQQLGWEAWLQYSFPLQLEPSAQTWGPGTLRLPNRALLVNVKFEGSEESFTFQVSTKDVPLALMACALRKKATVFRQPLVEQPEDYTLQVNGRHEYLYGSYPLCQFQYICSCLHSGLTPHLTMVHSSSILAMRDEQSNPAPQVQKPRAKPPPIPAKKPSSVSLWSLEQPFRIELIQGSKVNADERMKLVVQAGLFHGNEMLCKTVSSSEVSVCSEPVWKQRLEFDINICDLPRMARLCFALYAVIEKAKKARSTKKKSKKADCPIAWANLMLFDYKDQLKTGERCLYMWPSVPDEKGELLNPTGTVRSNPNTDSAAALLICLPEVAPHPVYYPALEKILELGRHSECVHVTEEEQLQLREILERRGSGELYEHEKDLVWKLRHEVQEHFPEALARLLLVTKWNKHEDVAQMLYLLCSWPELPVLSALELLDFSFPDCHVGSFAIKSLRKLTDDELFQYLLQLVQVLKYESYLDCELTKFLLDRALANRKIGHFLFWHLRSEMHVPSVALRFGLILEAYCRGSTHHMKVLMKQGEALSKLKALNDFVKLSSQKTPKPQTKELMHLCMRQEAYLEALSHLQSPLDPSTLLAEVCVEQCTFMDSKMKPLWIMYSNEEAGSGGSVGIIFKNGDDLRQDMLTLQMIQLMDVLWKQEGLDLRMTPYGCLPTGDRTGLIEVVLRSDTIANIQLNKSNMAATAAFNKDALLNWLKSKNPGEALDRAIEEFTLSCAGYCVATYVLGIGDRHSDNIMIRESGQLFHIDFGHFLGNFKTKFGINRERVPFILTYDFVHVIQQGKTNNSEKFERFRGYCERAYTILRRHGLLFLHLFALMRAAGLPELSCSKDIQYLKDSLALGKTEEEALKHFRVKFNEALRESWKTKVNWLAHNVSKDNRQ
Chain of PI3Kδ (P27986 whole entry partner): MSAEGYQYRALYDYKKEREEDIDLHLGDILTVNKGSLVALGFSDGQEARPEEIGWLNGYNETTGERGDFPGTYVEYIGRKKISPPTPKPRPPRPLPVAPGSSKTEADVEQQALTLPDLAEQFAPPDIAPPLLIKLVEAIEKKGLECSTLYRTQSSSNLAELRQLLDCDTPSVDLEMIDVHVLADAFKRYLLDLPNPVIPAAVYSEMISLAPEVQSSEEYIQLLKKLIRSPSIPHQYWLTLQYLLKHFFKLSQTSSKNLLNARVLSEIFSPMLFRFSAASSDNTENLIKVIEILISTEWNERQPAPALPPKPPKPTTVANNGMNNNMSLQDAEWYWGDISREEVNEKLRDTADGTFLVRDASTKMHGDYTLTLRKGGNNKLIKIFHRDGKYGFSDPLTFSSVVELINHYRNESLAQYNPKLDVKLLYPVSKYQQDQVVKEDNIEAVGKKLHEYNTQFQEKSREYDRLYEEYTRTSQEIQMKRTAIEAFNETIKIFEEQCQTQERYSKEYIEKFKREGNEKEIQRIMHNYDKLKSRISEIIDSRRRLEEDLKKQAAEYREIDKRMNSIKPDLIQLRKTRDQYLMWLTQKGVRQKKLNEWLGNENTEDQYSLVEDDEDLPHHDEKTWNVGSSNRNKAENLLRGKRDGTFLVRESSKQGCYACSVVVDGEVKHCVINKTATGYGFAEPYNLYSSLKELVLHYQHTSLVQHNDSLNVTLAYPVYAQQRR
Summary of the method: (§2)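 After 30 min at 25° C, reactions were quenched with 10 mM EDTA plus 10 nM labeled-PIP3 and 35 nM Europium-GRP-1, and TR-FRET was read (Ex 340, Em 615/665 nm). Enzymes were purified recombinant heterodimers; product PIP3 competes off the labeled tracer. Values given as IC50, nM.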

PI3Kα = PI3Kα (Homo sapiens (Human), UniProt P42336); conditions: bound given in uM
Chain of PI3Kα (P42336 whole entry): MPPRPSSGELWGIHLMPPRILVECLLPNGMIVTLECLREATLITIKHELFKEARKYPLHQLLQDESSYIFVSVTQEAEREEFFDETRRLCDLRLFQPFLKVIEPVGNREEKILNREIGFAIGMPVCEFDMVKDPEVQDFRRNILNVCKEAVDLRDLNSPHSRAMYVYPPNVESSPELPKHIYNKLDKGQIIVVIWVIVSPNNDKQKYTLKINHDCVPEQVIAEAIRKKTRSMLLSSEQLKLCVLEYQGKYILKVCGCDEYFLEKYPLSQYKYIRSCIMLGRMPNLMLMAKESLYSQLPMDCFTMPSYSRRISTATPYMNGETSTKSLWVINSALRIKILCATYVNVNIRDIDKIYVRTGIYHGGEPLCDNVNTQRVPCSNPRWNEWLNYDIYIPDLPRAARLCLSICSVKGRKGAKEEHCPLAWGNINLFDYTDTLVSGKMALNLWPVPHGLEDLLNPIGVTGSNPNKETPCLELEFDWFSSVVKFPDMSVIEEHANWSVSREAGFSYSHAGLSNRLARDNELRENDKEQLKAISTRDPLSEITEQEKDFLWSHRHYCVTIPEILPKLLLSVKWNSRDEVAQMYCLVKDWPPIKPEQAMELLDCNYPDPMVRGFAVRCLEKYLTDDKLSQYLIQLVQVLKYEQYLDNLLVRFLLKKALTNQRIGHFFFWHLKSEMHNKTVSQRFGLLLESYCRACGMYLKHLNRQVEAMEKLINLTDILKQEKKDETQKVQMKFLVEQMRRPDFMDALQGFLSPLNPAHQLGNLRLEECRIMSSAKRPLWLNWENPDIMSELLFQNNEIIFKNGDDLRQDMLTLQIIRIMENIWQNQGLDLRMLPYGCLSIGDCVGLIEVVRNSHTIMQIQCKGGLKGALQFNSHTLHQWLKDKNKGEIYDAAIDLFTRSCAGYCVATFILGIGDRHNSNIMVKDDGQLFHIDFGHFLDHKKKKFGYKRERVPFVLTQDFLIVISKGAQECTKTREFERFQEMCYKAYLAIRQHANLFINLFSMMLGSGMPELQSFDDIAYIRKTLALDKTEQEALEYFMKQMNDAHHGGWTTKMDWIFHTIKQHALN
Chain of PI3Kα (P27986 whole entry partner): as the sequence (P27986 whole entry partner) above
Summary of the method: as §2

Chain of PI3Kγ (P48736 whole entry, the tested form may be a part): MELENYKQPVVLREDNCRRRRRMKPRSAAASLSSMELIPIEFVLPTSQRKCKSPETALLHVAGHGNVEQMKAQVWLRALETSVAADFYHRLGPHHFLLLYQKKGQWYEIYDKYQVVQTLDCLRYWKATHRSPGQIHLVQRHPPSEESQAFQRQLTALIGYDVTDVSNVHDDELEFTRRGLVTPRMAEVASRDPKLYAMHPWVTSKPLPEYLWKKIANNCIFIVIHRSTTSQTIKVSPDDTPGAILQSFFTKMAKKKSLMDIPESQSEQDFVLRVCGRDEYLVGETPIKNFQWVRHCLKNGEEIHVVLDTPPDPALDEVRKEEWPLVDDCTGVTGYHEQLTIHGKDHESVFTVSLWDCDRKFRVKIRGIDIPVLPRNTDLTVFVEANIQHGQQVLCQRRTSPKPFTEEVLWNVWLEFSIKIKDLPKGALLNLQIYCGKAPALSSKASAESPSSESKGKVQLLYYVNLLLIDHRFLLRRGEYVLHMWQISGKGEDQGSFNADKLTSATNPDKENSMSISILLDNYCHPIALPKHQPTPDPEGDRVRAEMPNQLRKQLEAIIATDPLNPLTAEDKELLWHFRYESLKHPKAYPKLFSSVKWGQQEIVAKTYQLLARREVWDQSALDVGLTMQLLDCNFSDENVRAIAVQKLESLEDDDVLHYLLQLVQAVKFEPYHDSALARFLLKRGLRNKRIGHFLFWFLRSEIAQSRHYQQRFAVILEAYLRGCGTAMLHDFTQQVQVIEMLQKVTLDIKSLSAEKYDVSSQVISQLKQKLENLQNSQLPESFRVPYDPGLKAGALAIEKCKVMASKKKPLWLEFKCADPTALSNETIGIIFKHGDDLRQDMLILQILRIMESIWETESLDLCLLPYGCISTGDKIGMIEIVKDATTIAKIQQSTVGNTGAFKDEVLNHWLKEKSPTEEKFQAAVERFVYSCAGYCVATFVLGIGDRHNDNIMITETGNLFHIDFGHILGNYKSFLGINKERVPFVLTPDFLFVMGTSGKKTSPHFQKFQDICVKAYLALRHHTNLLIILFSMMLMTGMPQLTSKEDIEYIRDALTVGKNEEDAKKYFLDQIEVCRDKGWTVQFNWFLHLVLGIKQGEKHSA
Chain of PI3Kγ (Q8WYR1 whole entry partner, the tested form may be a part): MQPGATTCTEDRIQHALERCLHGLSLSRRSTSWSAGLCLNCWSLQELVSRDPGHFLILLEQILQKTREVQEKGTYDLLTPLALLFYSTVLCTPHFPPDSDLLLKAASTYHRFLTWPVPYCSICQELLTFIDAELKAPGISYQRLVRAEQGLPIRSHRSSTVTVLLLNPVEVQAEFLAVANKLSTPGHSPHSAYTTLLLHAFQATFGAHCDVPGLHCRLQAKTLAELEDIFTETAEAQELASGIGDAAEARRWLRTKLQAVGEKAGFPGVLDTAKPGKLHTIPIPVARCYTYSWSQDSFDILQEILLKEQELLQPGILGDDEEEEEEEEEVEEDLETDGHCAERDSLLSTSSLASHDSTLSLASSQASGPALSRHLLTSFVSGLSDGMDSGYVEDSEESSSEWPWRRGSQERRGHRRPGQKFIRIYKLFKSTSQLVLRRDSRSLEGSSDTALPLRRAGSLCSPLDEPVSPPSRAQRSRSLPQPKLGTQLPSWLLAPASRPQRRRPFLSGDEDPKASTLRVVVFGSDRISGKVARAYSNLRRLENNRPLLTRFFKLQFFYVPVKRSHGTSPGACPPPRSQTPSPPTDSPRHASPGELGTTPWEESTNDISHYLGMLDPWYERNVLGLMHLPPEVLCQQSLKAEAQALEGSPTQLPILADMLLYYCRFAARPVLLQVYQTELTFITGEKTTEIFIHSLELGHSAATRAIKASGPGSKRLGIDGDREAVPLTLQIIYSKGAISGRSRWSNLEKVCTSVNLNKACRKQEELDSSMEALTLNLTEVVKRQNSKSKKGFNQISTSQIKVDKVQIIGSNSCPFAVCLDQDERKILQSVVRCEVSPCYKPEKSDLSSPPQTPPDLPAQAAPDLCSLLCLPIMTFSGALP

SMILES | IC50 (PI3Kγ; bound given in nM) [nM] | IC50 (PI3Kβ; bound given in nM) [nM] | IC50 (PI3Kδ) [nM] | IC50 (PI3Kβ; bound given in uM) [nM] | IC50 (PI3Kα) [µM] | IC50 (PI3Kγ; bound given in uM) [nM]
C[C@H](Nc1ncnc(N)c1C#Cc1cn[nH]c1)c1nc2cccc(Cl)c2c(=O)n1-c1ccccc1 [Compound 49a, (S)-2-(1-(5-((1H-pyrazol-4-yl)ethynyl)-6-aminopyrimidin-4-ylamino)ethyl)-5-chloro-3-phenylquinazolin-4(3H)-one] | < 100 | < 100 | < 100 | – | – | –
C[C@H](Nc1nc(N)nc(N)c1C#Cc1ccc(F)cn1)c1nc2cccc(Cl)c2c(=O)n1-c1ccccc1 [Compound 83a, (S)-5-chloro-2-(1-((2,6-diamino-5-((5-fluoropyridin-2-yl)ethynyl)pyrimidin-4-yl)amino)ethyl)-3-phenylquinazolin-4(3H)-one] | – | – | < 100 | > 1000 | > 1 | –
C[C@H](Nc1ncnc(N)c1C#Cc1ccc(OC(F)(F)F)cc1)c1nc2cccc(Cl)c2c(=O)n1-c1ccccc1 [Compound 27a, (S)-2-(1-(6-amino-5-((4-(trifluoromethoxy)phenyl)ethynyl)pyrimidin-4-ylamino)ethyl)-5-chloro-3-phenylquinazolin-4(3H)-one] | – | – | < 100 | > 1000 | > 1 | –
C[C@H](Nc1ncnc(N)c1C#Cc1cccc(CO)n1)c1nc2cccc(Cl)c2c(=O)n1-c1ccccc1 [Compound 155a, (S)-2-(1-((6-amino-5-((6-(hydroxymethyl)pyridin-2-yl)ethynyl)pyrimidin-4-yl)amino)ethyl)-5-chloro-3-phenylquinazolin-4(3H)-one] | < 100 | > 1 | < 100 | – | – | –
C[C@H](Nc1ncnc(N)c1C#Cc1cnccn1)c1nc2cccc(Cl)c2c(=O)n1-c1ccccc1 [Compound 16a, (S)-2-(1-(6-amino-5-(pyrazin-2-ylethynyl)pyrimidin-4-ylamino)ethyl)-5-chloro-3-phenylquinazolin-4(3H)-one] | – | < 100 | < 100 | – | > 1 | –
C[C@H](Nc1ncnc(N)c1C#Cc1cccnc1)c1nc2cccc(Cl)c2c(=O)n1-c1cc(F)cc(F)c1 [Compound 43a, (S)-2-(1-(6-amino-5-(pyridin-3-ylethynyl)pyrimidin-4-ylamino)ethyl)-5-chloro-3-(3,5-difluorophenyl)quinazolin-4(3H)-one] | – | – | < 100 | > 1000 | > 1 | –
CC(O)c1cccc(C#Cc2c(N)ncnc2N[C@@H](C)c2nc3cccc(Cl)c3c(=O)n2-c2ccccc2)n1 (stereo partly drawn) [Compound 157a, 2-((1S)-1-((6-amino-5-((6-(1-hydroxyethyl)pyridin-2-yl)ethynyl)pyrimidin-4-yl)amino)ethyl)-5-chloro-3-phenylquinazolin-4(3H)-one] | – | < 100 | < 100 | – | > 1 | –
C[C@H](Nc1ncnc(N)c1C#Cc1ccccc1)c1nc2cccc(Cl)c2c(=O)n1-c1ccccc1 [Compound 51a, (S)-2-(1-(6-amino-5-(phenylethynyl)pyrimidin-4-ylamino)ethyl)-5-chloro-3-phenylquinazolin-4(3H)-one] | < 100 | < 100 | < 100 | – | – | –
C[C@H](Nc1ncnc(N)c1C#Cc1ccc(C(N)=O)cn1)c1nc2cccc(Cl)c2c(=O)n1-c1cc(F)cc(F)c1 [Compound 136a, (S)-6-((4-amino-6-((1-(5-chloro-3-(3,5-difluorophenyl)-4-oxo-3,4-dihydroquinazolin-2-yl)ethyl)amino)pyrimidin-5-yl)ethynyl)nicotinamide] | – | – | < 100 | > 1000 | > 1 | –
C[C@H](Nc1ncnc(N)c1C#Cc1ccc(C(F)(F)F)cn1)c1nc2cccc(Cl)c2c(=O)n1-c1cc(F)cc(F)c1 [Compound 134a, (S)-2-(1-((6-amino-5-((5-(trifluoromethyl)pyridin-2-yl)ethynyl)pyrimidin-4-yl)amino)ethyl)-5-chloro-3-(3,5-difluorophenyl)quinazolin-4(3H)-one] | – | – | – | > 1000 | > 1 | –
Cc1ccnc(C#Cc2c(N)ncnc2N[C@@H](C)c2nc3cccc(Cl)c3c(=O)n2-c2ccccc2)c1 [Compound 147a, (S)-2-(1-((6-amino-5-((4-methylpyridin-2-yl)ethynyl)pyrimidin-4-yl)amino)ethyl)-5-chloro-3-phenylquinazolin-4(3H)-one] | – | < 100 | < 100 | – | – | –
Cc1cccc2nc([C@H](C)Nc3ncnc(N)c3C#Cc3cnccn3)n(-c3ccccc3)c(=O)c12 [Compound 98a, (S)-2-(1-((6-amino-5-(pyrazin-2-ylethynyl)pyrimidin-4-yl)amino)ethyl)-5-methyl-3-phenylquinazolin-4(3H)-one] | – | < 100 | < 100 | – | – | –
C[C@H](Nc1ncnc(N)c1C#Cc1ncccc1C(F)(F)F)c1nc2cccc(Cl)c2c(=O)n1-c1ccccc1 [Compound 142a, (S)-2-(1-((6-amino-5-((3-(trifluoromethyl)pyridin-2-yl)ethynyl)pyrimidin-4-yl)amino)ethyl)-5-chloro-3-phenylquinazolin-4(3H)-one] | – | < 100 | < 100 | – | > 1 | –
C[C@H](Nc1ncnc(N)c1C#Cc1cccc(N)n1)c1nc2cccc(Cl)c2c(=O)n1-c1cc(F)cc(F)c1 [Compound 15a, (S)-2-(1-(6-amino-5-((6-aminopyridin-2-yl)ethynyl)pyrimidin-4-ylamino)ethyl)-5-chloro-3-(3,5-difluorophenyl)quinazolin-4(3H)-one] | – | < 100 | < 100 | – | – | –
Cc1ccc(F)c2nc([C@H](C)Nc3ncnc(N)c3C#Cc3cnccn3)n(-c3ccccc3)c(=O)c12 [Compound 75a, (S)-2-(1-((6-amino-5-(pyrazin-2-ylethynyl)pyrimidin-4-yl)amino)ethyl)-8-fluoro-5-methyl-3-phenylquinazolin-4(3H)-one] | – | < 100 | < 100 | – | – | –
C[C@H](Nc1ncnc(N)c1C#Cc1cc(CO)ccn1)c1nc2cccc(Cl)c2c(=O)n1-c1ccccc1 [Compound 154a, (S)-2-(1-((6-amino-5-((4-(hydroxymethyl)pyridin-2-yl)ethynyl)pyrimidin-4-yl)amino)ethyl)-5-chloro-3-phenylquinazolin-4(3H)-one] | < 100 | < 100 | < 100 | – | – | –
C[C@H](Nc1ncnc(N)c1C#Cc1cc(C(=O)O)ccn1)c1nc2cccc(Cl)c2c(=O)n1-c1ccccc1 [Compound 160a, (S)-2-((4-amino-6-((1-(5-chloro-4-oxo-3-phenyl-3,4-dihydroquinazolin-2-yl)ethyl)amino)pyrimidin-5-yl)ethynyl)isonicotinic acid] | – | < 100 | < 100 | – | – | > 1000
C[C@H](Nc1ncnc(N)c1C#Cc1ccc(F)cn1)c1nc2c(F)ccc(Cl)c2c(=O)n1-c1cc(F)cc(F)c1 [Compound 84a, (S)-2-(1-((6-amino-5-((5-fluoropyridin-2-yl)ethynyl)pyrimidin-4-yl)amino)ethyl)-5-chloro-3-(3,5-difluorophenyl)-8-fluoroquinazolin-4(3H)-one] | – | – | < 100 | > 1000 | > 1 | –
C[C@H](Nc1ncnc(N)c1C#Cc1cncnc1)c1nc2cccc(Cl)c2c(=O)n1-c1ccccc1 [Compound 42a, (S)-2-(1-(6-amino-5-(pyrimidin-5-ylethynyl)pyrimidin-4-ylamino)ethyl)-5-chloro-3-phenylquinazolin-4(3H)-one] | – | – | < 100 | > 1000 | > 1 | –
Cc1cccc(C#Cc2c(N)ncnc2N[C@@H](C)c2nc3cccc(Cl)c3c(=O)n2-c2ccccc2)n1 [Compound 141a, (S)-2-(1-((6-amino-5-((6-methylpyridin-2-yl)ethynyl)pyrimidin-4-yl)amino)ethyl)-5-chloro-3-phenylquinazolin-4(3H)-one] | – | < 100 | < 100 | – | > 1 | –
C[C@H](Nc1nc(N)nc(N)c1C#Cc1ccc(F)cn1)c1nc2cccc(Cl)c2c(=O)n1-c1cc(F)cc(F)c1 [Compound 78a, (S)-5-chloro-2-(1-((2,6-diamino-5-((5-fluoropyridin-2-yl)ethynyl)pyrimidin-4-yl)amino)ethyl)-3-(3,5-difluorophenyl)quinazolin-4(3H)-one] | – | – | < 100 | > 1000 | > 1 | –
C[C@H](Nc1ncnc(N)c1C#Cc1ccc(F)cn1)c1nc2cccc(C(F)F)c2c(=O)n1-c1ccccc1 [Compound 67a, (S)-2-(1-((6-amino-5-((5-fluoropyridin-2-yl)ethynyl)pyrimidin-4-yl)amino)ethyl)-5-(difluoromethyl)-3-phenylquinazolin-4(3H)-one] | – | – | < 100 | > 1000 | > 1 | –
Cc1cccnc1C#Cc1c(N)ncnc1N[C@@H](C)c1nc2cccc(Cl)c2c(=O)n1-c1ccccc1 [Compound 143a, (S)-2-(1-((6-amino-5-((3-methylpyridin-2-yl)ethynyl)pyrimidin-4-yl)amino)ethyl)-5-chloro-3-phenylquinazolin-4(3H)-one] | – | < 100 | < 100 | – | > 1 | –
COC(=O)c1ccc(C#Cc2c(N)ncnc2N[C@@H](C)c2nc3cccc(Cl)c3c(=O)n2-c2ccccc2)nc1 [Compound 3a, (S)-methyl 6-((4-amino-6-(1-(5-chloro-4-oxo-3-phenyl-3,4-dihydroquinazolin-2-yl)ethylamino)pyrimidin-5-yl)ethynyl)nicotinate] | – | – | < 100 | > 1000 | > 1 | –
Cc1ccc(C#Cc2c(N)ncnc2N[C@@H](C)c2nc3cccc(Cl)c3c(=O)n2-c2cc(F)cc(F)c2)nc1 [Compound 164a, (S)-2-(1-((6-amino-5-((5-methylpyridin-2-yl)ethynyl)pyrimidin-4-yl)amino)ethyl)-5-chloro-3-(3,5-difluorophenyl)quinazolin-4(3H)-one] | – | – | < 100 | > 1000 | > 1 | –
